This note sets out measurements from patent publication US8404670B2 (Sunovion Pharmaceuticals Inc., priority 2009, dated 2013).

As a reminder, the IC50 is the concentration needed to halve the response being measured.

This assay concerns the target T1, human histamine H3 receptor (Homo sapiens, UniProt Q9Y5N1).
T1 construct: host or cells: cells expressing the human H3 receptor
As to the kind of experiment: H3 GTPγS assay (SPA method), histamine H3 in vitro assay. The format is biochemical. To be noted: GTPγ[35S] binding to membranes of cells expressing human H3; antagonist mode with R-γ-Me-Histamine at EC80 (30 nM); in one embodiment HCl salts tested; read-out: Potency (functional potency as indicated by IC50). How it is done:
H3 GTPγS assay (SPA method) was performed at EuroScreen (Belgium, ES-392-C) using conventional methods. Briefly, cells expressing the human histamine H3 receptor were homogenized in 15 mM Tris-HCl pH 7.5, 2 mM MgCl2, 0.3 mM EDTA, and 1 mM EGTA. Membranes were washed twice in the above tris buffer, collected by centrifugation (40,000×g, 25 min), and re-suspended in 75 mM Tris-HCl pH 7.5, 12.5 mM MgCl2, 0.3 mM EDTA, 1 mM EGTA, and 250 mM sucrose. Membranes were frozen in liquid nitrogen until use. On the day of the assay, membranes were thawed and diluted in assay buffer (20 mM HEPES pH 7.4, 100 mM NaCl, 10 μg/ml saponin, 1 mM MgCl2) to give 500 μg/ml and mixed (v/v) with GDP in assay buffer for a final GDP concentration of 10 μM and incubated on ice for at least 15 min. PVT-WGA beads (Amersham, RPNQ001) were diluted in assay buffer at 50 mg/mL and mixed with GTPγ[^35S] (Amersham, SJ1308) diluted in assay buffer to give ˜25,000 dpm/10 μL and mixed vol/vol just before the start of the reaction. The reaction was started by adding 50 μL of test compound, 20 μL of the membranes:GDP mix, 10 μL of buffer, and 20 μL of the GTPγ[^35S]:beads mix in a 96 well plate Optiplate™ (PerkinElmer, 6005299) covered with topseal (TopCount™, PerkinElmer), mixed with an orbital shaker for 2 min, incubated for 1 hour at room temperature, centrifuged for 10 min at 2000 rpm, incubated for 1 h at room temperature, and counted for 1 min in a TopCount™ reader (PerkinElmer). Dose response curves and IC50 values (concentration to inhibit the reaction by 50%) were calculated by nonlinear regression using XLfit software (IDBS).
For antagonists testing, 10 μL of a reference agonist (R-γ-Me-Histamine) instead of 10 μL buffer was added at a concentration corresponding to the EC80 (30 nM). Control ligands were R-γ-Me-Histamine (Tocris, 0569), Imetit (Sigma, I-135), Thioperamide (Tocris, 0644), and Clobenpropit (Tocris, 0754) diluted in assay buffer.
The compounds provided herein were tested in the histamine H3 in vitro assay. In one embodiment, the respective HCl salts of the compounds provided herein were prepared using standard chemical procedures and tested in the histamine H3 in vitro assay.

T1 sequence (Q9Y5N1 whole entry): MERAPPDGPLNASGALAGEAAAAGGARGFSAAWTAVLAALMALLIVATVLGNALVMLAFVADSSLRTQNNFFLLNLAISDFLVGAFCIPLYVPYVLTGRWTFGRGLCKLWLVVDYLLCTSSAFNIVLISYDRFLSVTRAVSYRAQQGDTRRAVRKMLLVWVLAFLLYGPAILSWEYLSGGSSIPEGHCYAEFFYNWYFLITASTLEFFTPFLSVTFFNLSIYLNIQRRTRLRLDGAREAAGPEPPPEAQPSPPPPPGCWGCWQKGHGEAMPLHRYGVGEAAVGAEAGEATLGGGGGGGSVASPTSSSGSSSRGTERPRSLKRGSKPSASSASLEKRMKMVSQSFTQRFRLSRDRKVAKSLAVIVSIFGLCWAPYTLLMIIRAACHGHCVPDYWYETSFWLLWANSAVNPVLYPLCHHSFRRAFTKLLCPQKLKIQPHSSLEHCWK

With `c1ccc2c(c1)cnn2-c1ccc2c(c1)nc1n2CCN(C2CCC2)CC1` [Compound 69], the IC50 was at most 100 nM. As to `c1cnc2c(c1)ccn2-c1ccc2c(c1)nc1n2CCN(C2CCC2)CC1` [Compound 70, 3-cyclobutyl-9-(1H-pyrrolo[2,3-b]pyridin-1-yl)-2,3,4,5-tetrahydro-1H-[1,4]diazepino[1,7-a]benzimidazole], the IC50 was at most 100 nM. Take `O=c1cccnn1-c1ccc2c(c1)nc1n2CCN(C2CCC2)CC1` [Compound 71, 2-(3-cyclobutyl-2,3,4,5-tetrahydro-1H-[1,4]diazepino[1,7-a]benzimidazol-9-yl)pyridazin-3(2H)-one]: the IC50 was at most 1000 nM. Consider `O=c1[nH]c2ccccc2n1-c1ccc2c(c1)nc1n2CCN(C2CCC2)CC1` [Compound 72, 1-(3-cyclobutyl-2,3,4,5-tetrahydro-1H-[1,4]diazepino[1,7-a]benzimidazol-9-yl)-1H-benzo[d]imidazol-2(3H)-one], for which the IC50 was at most 100 nM. On to `CN1CCN(c2ccc3c(c2)nc2n3CCN(C3CCC3)CC2)CC1` [Compound 73, 3-cyclobutyl-9-(4-methylpiperazin-1-yl)-2,3,4,5-tetrahydro-1H-[1,4]diazepino[1,7-a]benzimidazole], for which the IC50 is at most 10 nM.

In the case of `c1cc2c(cc1CN1CCOCC1)nc1n2CCN(C2CCC2)CC1` [Compound 74, 3-cyclobutyl-9-(morpholin-1-ylmethyl)-2,3,4,5-tetrahydro-1H-[1,4]diazepino[1,7-a]benzimidazole], the IC50 is at most 10 nM. In the case of `c1cc2c(cc1CN1CCCC1)nc1n2CCN(C2CCC2)CC1` [Compound 75] it was at most 10 nM; in that of `CNC(=O)c1ccc(Oc2ccc3nc4n(c3c2)CCN(C2CCC2)CC4)nc1` [Compound 76], at least 1000 nM. As for `COc1ccnc(Oc2ccc3nc4n(c3c2)CCN(C2CCC2)CC4)n1` [Compound 78], the IC50 is at most 1000 nM. Turning to `COc1ccnc(Nc2ccc3nc4n(c3c2)CCN(C2CCC2)CC4)n1` [Compound 80], the half-inhibitory concentration (IC50) was at most 1000 nM.

On to `N#Cc1ccc(CNc2ccc3nc4n(c3c2)CCN(C2CCC2)CC4)cc1` [Compound 81], for which the IC50 was at most 100 nM. For `N#Cc1ccc2nc3n(c2c1)CCN(C1CCC1)CC3` [Compound 82], the IC50 was at least 1000 nM. For the compound `O=C(c1ccc2nc3n(c2c1)CCN(C1CCC1)CC3)N1CCOCC1` [Compound 84], the IC50 was at most 1000 nM. With `CN(C)C(=O)c1ccc2nc3n(c2c1)CCN(C1CCC1)CC3` [Compound 85], the IC50 was at least 1000 nM. With `O=C(c1ccc2nc3n(c2c1)CCN(C1CCC1)CC3)N1CCCC1` [Compound 86], the concentration for half-maximal inhibition (IC50) was at most 1000 nM. For `CN(C)Cc1ccc2nc3n(c2c1)CCN(C1CCC1)CC3` [Compound 87], the IC50 was at most 10 nM.

In the case of `c1cc2nc3n(c2cc1CN1CCOCC1)CCN(C1CCC1)CC3` [Compound 88, 3-cyclobutyl-8-(morpholin-1-ylmethyl)-2,3,4,5-tetrahydro-1H-[1,4]diazepino[1,7-a]benzimidazole], the half-maximal inhibitory concentration (IC50) was at most 10 nM. As to `c1cc2nc3n(c2cc1CN1CCCC1)CCN(C1CCC1)CC3` [Compound 89], the IC50 is at most 10 nM.

As to `c1coc(-c2ccc3nc4n(c3c2)CCN(C2CCC2)CC4)c1` [Compound 90], the IC50 is at most 1000 nM.

As to `c1cc2c(cc1-c1cnc(N3CCCC3)cn1)nc1n2CCN(C2CCC2)CC1` [Compound 91], the IC50 was at most 100 nM. On to `CN1CCN(c2cnc(-c3ccc4c(c3)nc3n4CCN(C4CCC4)CC3)cn2)CC1` [Compound 92, 3-cyclobutyl-9-(5-(4-methylpiperazin-1-yl)pyrazin-2-yl)-2,3,4,5-tetrahydro-1H-[1,4]diazepino[1,7-a]benzimidazole], for which the IC50 was at most 10 nM. Turning to `c1cc2c(cc1-c1cncc(N3CCCC3)n1)nc1n2CCN(C2CCC2)CC1` [Compound 94, 3-cyclobutyl-9-(6-(pyrrolidin-1-yl)pyrazin-2-yl)-2,3,4,5-tetrahydro-1H-[1,4]diazepino[1,7-a]benzimidazole], the IC50 is at most 100 nM. For `CN1CCN(c2cncc(-c3ccc4c(c3)nc3n4CCN(C4CCC4)CC3)n2)CC1` [Compound 95, 3-cyclobutyl-9-(6-(4-methylpiperazin-1-yl)pyrazin-2-yl)-2,3,4,5-tetrahydro-1H-[1,4]diazepino[1,7-a]benzimidazole] the value was at most 10 nM; for `c1cc2c(cc1N1CCN(C3CCCC3)CC1)nc1n2CCN(C2CCC2)CC1` [Compound 100, 3-cyclobutyl-9-(4-cyclopentylpiperazin-1-yl)-2,3,4,5-tetrahydro-1H-[1,4]diazepino[1,7-a]benzimidazole], at most 10 nM. As for `c1cc2c(cc1N1CCN(C3CCCCC3)CC1)nc1n2CCN(C2CCC2)CC1` [Compound 102], the IC50 is at most 10 nM. Turning to `c1cc2c(cc1N1CCN(C3CCOCC3)CC1)nc1n2CCN(C2CCC2)CC1` [Compound 103, 3-cyclobutyl-9-(4-(tetrahydro-2H-pyran-4-yl)piperazin-1-yl)-2,3,4,5-tetrahydro-1H-[1,4]diazepino[1,7-a]benzimidazole], the IC50 is at most 10 nM. Regarding `c1cc2c(cc1N1CCN(CC3CC3)CC1)nc1n2CCN(C2CCC2)CC1` [Compound 104, 3-cyclobutyl-9-(4-(cyclopropylmethyl)piperazin-1-yl)-2,3,4,5-tetrahydro-1H-[1,4]diazepino[1,7-a]benzimidazole], the IC50 was at most 10 nM. `CN(C)Cc1ccc2c(c1)nc1n2CCN(C2CCC2)CC1` [Compound 105]: the IC50 is at most 100 nM.

For `OCc1ccc2c(c1)nc1n2CCN(C2CCC2)CC1` [Compound 106, 2-(3-cyclobutyl-2,3,4,5-tetrahydro-1H-[1,4]diazepino[1,7-a]benzimidazol-9-yl)methanol], the IC50 is at most 1000 nM.

For `COc1ccnc(OCc2ccc3c(c2)nc2n3CCN(C3CCC3)CC2)n1` [Compound 107], the IC50 is at most 100 nM.

For the compound `N#Cc1ccc(OCc2ccc3c(c2)nc2n3CCN(C3CCC3)CC2)nc1` [Compound 108, 6-((3-cyclobutyl-2,3,4,5-tetrahydro-1H-[1,4]diazepino[1,7-a]benzimidazol-9-yl)methoxy)nicotino-nitrile], the IC50 is at most 100 nM. For `c1cnc(OCc2ccc3c(c2)nc2n3CCN(C3CCC3)CC2)cn1` [Compound 109] the value was at most 10 nM; for `OCc1ccc2nc3n(c2c1)CCN(C1CCC1)CC3` [Compound 110, 2-(3-cyclobutyl-2,3,4,5-tetrahydro-1H-[1,4]diazepino[1,7-a]benzimidazol-8-yl)methanol], at most 1000 nM. In the case of `COc1ccnc(OCc2ccc3nc4n(c3c2)CCN(C2CCC2)CC4)n1` [Compound 111], the IC50 was at most 1000 nM. In the case of `N#Cc1ccc(OCc2ccc3nc4n(c3c2)CCN(C2CCC2)CC4)nc1` [Compound 112, 6-((3-cyclobutyl-2,3,4,5-tetrahydro-1H-[1,4]diazepino[1,7-a]benzimidazol-8-yl)methoxy)nicotino-nitrile] it was at most 1000 nM. As to `c1cnc(OCc2ccc3nc4n(c3c2)CCN(C2CCC2)CC4)cn1` [Compound 113, 3-cyclobutyl-9-((pyrazin-2-yloxy)methyl)-2,3,4,5-tetrahydro-1H-[1,4]diazepino[1,7-a]benzimidazole], the IC50 is at most 1000 nM. For `c1ccc(-c2ccc3c(c2)nc2n3CCN(C3CCC3)CC2)nc1` [Compound 114, 3-cyclobutyl-9-(pyridin-2-yl)-2,3,4,5-tetrahydro-1H-[1,4]diazepino[1,7-a]benzimidazole] the value was at most 100 nM.
